Experimental data: patent publication US20190374627A1, “TARGET PEPTIDES FOR CANCER THERAPY AND DIAGNOSTICS” (priority 2016, published 2019)
Square brackets hold non-standard residues; d marks the D form. Ends that are not written are not given here. pS = N[C@@H](COP(=O)(O)O)C(=O)O

What was measured:
[1] = system: unexpanded lymphocyte cultures (CD8^+ T cells); assay: ICS for MHC-I-pP reactivity of lymphocyte cultures without expansion (Table 23, No Expansion); conditions: HH6
[2] = system: expanded lymphocyte cultures from deceased donor livers, cirrhotic livers and HCC; assay: ICS for MHC-I-pP reactivity of liver-derived lymphocyte cultures after phosphopeptide-specific expansion; format: cell-based, human; conditions: for ppCTL response, Deceased Donor Liver Do 2 / ppCTL response, Deceased Donor Liver Do 3 / ppCTL response, Deceased Donor Liver Do 4 / ppCTL response, Deceased Donor Liver Do 6 / ppCTL response, End-stage Liver Cirrhosis IHL 11 / ppCTL response, End-stage Liver Cirrhosis IHL 13 / ppCTL response, HCC Distal HCC 1 / ppCTL response, HCC Tumor HCC 1 / ppCTL response, HCC Distal HCC 4: pP-specifically expanded culture; for ppCTL response, HCC Distal HCC 1: HCC 1 Distal; for ppCTL response, HCC Tumor HCC 1: HCC 1 Tumor; for ppCTL response, HCC Distal HCC 4: HCC 4 Distal
[3] = system: CD8^+ T cells (PBMCs); assay: Intracellular cytokine staining (ICS) of PBMCs after 7 days of stimulation with MHC-I-pP (healthy donors, HH patients); format: cell-based, human; conditions: for Reactive CD8^+ T cell population, HH2: HH patient HH2; for Reactive CD8^+ T cell population, HH3: HH patient HH3; for Reactive CD8^+ T cell population, HH8: HH patient HH8; for Reactive CD8^+ T cell population, HH11: HH patient HH11
Procedure: From this, CD8^+ T cell responses against newly identified MHC class I-associated phosphopeptides in healthy individuals and patients with chronic liver disease were investigated. Twenty-one of the newly identified HCC-associated HLA-A*0201-restricted phosphopeptides were selected (see Table 17) for further immunological testing in HLA-A*0201 positive patients. MHC-I-pP-specific cytotoxic CD8^+ T cell responses (ppCTL) were assessed using intracellular cytokine staining (ICS) and several cytokines and surface markers were assessed in parallel. After 7 days of stimulation with the respective MHC-I-pP and no other cytokines, CD3- and CD8-expressing T cells were stained for at least two different cytokines (IFN-γ, TNF-α) and when required CD107a expression as a marker for their cytotoxic potential.
First, peripheral blood mononuclear cells (PBMCs) from healthy donors and patients with hereditary hemochromatosis (HH) were analyzed. HH is a chronic liver disease characterized by excessive intestinal absorption of dietary iron resulting in a pathological deposition of iron in the liver. PBMCs or lymphocytes from liver tissue were extracted and specifically stimulated with (phospho-) peptides for 7 days before intracellular cytokine staining (ICS). Doublets and dead cells, using a fixable viability dye, were excluded. Lymphocytes were gated on CD3^+ and CD8^+ double positive cells and were analysed for expression of IFNγ, TNFα-, and CD107a.

Substance	Reactive CD8^+ T cells, No Expansion, HH6 [1]	Reactive CD8^+ T cells, pP-specific Expansion, Do2 [2]	Reactive CD8^+ T cells, pP-specific Expansion, Do4 [2]	Reactive CD8^+ T cells, pP-specific Expansion, HH6 [2]	ppCTL response, Deceased Donor Liver Do 2 [2]	ppCTL response, Deceased Donor Liver Do 3 [2]	ppCTL response, Deceased Donor Liver Do 4 [2]	ppCTL response, Deceased Donor Liver Do 6 [2]	ppCTL response, End-stage Liver Cirrhosis IHL 11 [2]	ppCTL response, End-stage Liver Cirrhosis IHL 13 [2]	ppCTL response, HCC Distal HCC 1 [2]	ppCTL response, HCC Tumor HCC 1 [2]	ppCTL response, HCC Distal HCC 4 [2]	Reactive CD8^+ T cell population, HH2 [3]	Reactive CD8^+ T cell population, HH3 [3]	Reactive CD8^+ T cell population, HH8 [3]	Reactive CD8^+ T cell population, HH11 [3]
RQAsIELPSMAV: LSP1 phosphopeptide, HLA-A*0201 (RQA[pS]IELPSMAV; listed as Homo sapiens)	1 (0.25-2.5% reactive CD8^-+ T cells)	0 (<0.25% reactive CD8^-+ T cells)	0 (<0.25% reactive CD8^-+ T cells)	0 (<0.25% reactive CD8^-+ T cells)	0 (<0.25% reactive CD8-+ T cells)	0 (<0.25% reactive CD8-+ T cells)	0 (<0.25% reactive CD8-+ T cells)	1 (0.25-2.5% reactive CD8-+ T cells)	0 (<0.25% reactive CD8-+ T cells)	0 (<0.25% reactive CD8-+ T cells)	0 (<0.25% reactive CD8-+ T cells)	0 (<0.25% reactive CD8-+ T cells)	0 (<0.25% reactive CD8-+ T cells)	0 (<0.25% reactive CD8^-+ T cells)	0 (<0.25% reactive CD8^-+ T cells)	0 (<0.25% reactive CD8^-+ T cells)	0 (<0.25% reactive CD8^-+ T cells)
RQDsTPGKVFL: NR2C1 phosphopeptide, HLA-A*0201 (RQD[pS]TPGKVFL; listed as Homo sapiens)	2 (2.5-5.0% reactive CD8^-+ T cells)	0 (<0.25% reactive CD8^-+ T cells)	0 (<0.25% reactive CD8^-+ T cells)	1 (0.25-2.5% reactive CD8^-+ T cells)	1 (0.25-2.5% reactive CD8-+ T cells)	0 (<0.25% reactive CD8-+ T cells)	0 (<0.25% reactive CD8-+ T cells)	0 (<0.25% reactive CD8-+ T cells)	0 (<0.25% reactive CD8-+ T cells)	0 (<0.25% reactive CD8-+ T cells)	0 (<0.25% reactive CD8-+ T cells)	0 (<0.25% reactive CD8-+ T cells)	0 (<0.25% reactive CD8-+ T cells)	0 (<0.25% reactive CD8^-+ T cells)	0 (<0.25% reactive CD8^-+ T cells)	0 (<0.25% reactive CD8^-+ T cells)	0 (<0.25% reactive CD8^-+ T cells)
RQLsSGVSEI: HSPB1 phosphopeptide, HLA-A*0201 (RQL[pS]SGVSEI; listed as Homo sapiens)	2 (2.5-5.0% reactive CD8^-+ T cells)	0 (<0.25% reactive CD8^-+ T cells)	0 (<0.25% reactive CD8^-+ T cells)	0 (<0.25% reactive CD8^-+ T cells)	0 (<0.25% reactive CD8-+ T cells)	0 (<0.25% reactive CD8-+ T cells)	0 (<0.25% reactive CD8-+ T cells)	0 (<0.25% reactive CD8-+ T cells)	0 (<0.25% reactive CD8-+ T cells)	0 (<0.25% reactive CD8-+ T cells)	0 (<0.25% reactive CD8-+ T cells)	0 (<0.25% reactive CD8-+ T cells)	0 (<0.25% reactive CD8-+ T cells)	0 (<0.25% reactive CD8^-+ T cells)	0 (<0.25% reactive CD8^-+ T cells)	0 (<0.25% reactive CD8^-+ T cells)	0 (<0.25% reactive CD8^-+ T cells)
